Experimental data as given in EPA's ToxValDB 9.5 (doi:10.2903/j.efsa.2017.4981).
Where “and” joins values, the source holds several entries; their conditions need not be identical. Equal values may be shown once.

Assays:
[1] = test system: Canidae; details: oral, Dog Other, body weight
[2] = test system: Folsomia candida; details: chronic/long-term; duration: 28 days; mortality
[3] = test system: Rattus norvegicus; details: for LD50: acute, mortality
[4] = test system: Tagia sp.; details: chronic/long-term, duration: 56 days
[5] = test system: Anas platyrhynchos; details: reproductive
[6] = test system: Apis mellifera; details: acute, duration: 48 hours, mortality
[7] = test system: Colinus virginianus
[8] = test system: Daphnia magna; details: chronic/long-term; duration: 21 days; reproduction
[9] = test system: Oncorhynchus mykiss; details: mortality
[10] = test system: Plant; details: chronic/long-term; duration: 4 months
[11] = test system: Typhlodromus pyri; details: acute; mortality
[12] = chronic, duration: 2 years, oral, diet, organ weight
[13] = reproduction developmental, reproduction
[14] = subchronic, duration: 90 days, oral, diet, F, organ weight

CCOCCN(C(C)=O)C(=C(C)C)c1ccccc1
NOAEL ([1]; subchronic, duration: 90 days): 8 mg/kg-day
NOEC [2]: 50 mg/kg
NOAEL [3, 12]: 1 mg/kg-day
NOAEL [3, 13]: 8 mg/kg-day
NOAEL [3, 14]: 8 mg/kg-day
NOEC ([4]; growth): 30 mg/kg

CC(C)=C(c1ccccc1)N(CC(=O)O)C(=O)CS(=O)(=O)O [N-(2-Methyl-1-phenylprop-1-en-1-yl)-N-(sulfoacetyl)glycine]
NOEC [2]: 100 mg/kg
NOEC ([4]; growth): 60 mg/kg

CCOCCN(C(=O)CCl)C(=C(C)C)c1ccccc1 [Pethoxamid]
NOEL [5]: 396 mg/kg-day
LD50 ([6]; dermal): > 200 µg/piece
LD50 ([6]; oral, unspecified): > 200 µg/piece
NOAEL ([1]; chronic, duration: 1 years): 2 mg/kg-day
NOAEL ([1]; subchronic, duration: 90 days): 8 mg/kg-day
LD50 ([7]; acute, oral, mortality): 872 mg/kg-day
NOEL ([7]; reproduction developmental): 100 mg/kg-day
NOEC [8]: 2.8 mg/L
LC50 ([9]; acute, duration: 96 hours): 2.2 µg/mL and 2.19 µg/mL
NOEC ([9]; chronic/long-term, duration: 94 days): 0.0924 mg/L
NOAEC [10]: 8 µg/L
LD50 ([3]; oral, M): 983 mg/kg-day
NOAEL [3, 12]: 1 mg/kg-day
NOAEL ([3]; reproduction developmental, oral, diet, F, reproduction): 24 mg/kg-day
NOAEL [3, 13]: 8 mg/kg-day
NOAEL [3, 14]: 8 mg/kg-day
NOEC ([4]; reproduction): 0.8 mg/kg
LEC [11]: ≤ 1200 g/ha

CCOCCN(C(=O)CS(=O)(=O)O)C(=C(C)C)c1ccccc1
NOEC [2]: 93.3 mg/kg
LD50 ([3]; oral): > 2000 mg/kg-day
NOAEL ([3]; short-term, duration: 4 weeks, oral, diet): 410 mg/kg-day
NOEC ([4]; growth): 100 mg/kg
